Results: patent US12630563B2, “Macrocyclic RIP2-kinase inhibitors” (Oncodesign S.A., priority 2020, dated 2026)

Tests used:
[1] = biological target: T1, recombinant hRIPK2 protein (kinase domain aa 1-299-His-tagged) (Homo sapiens, UniProt O43353); test: RIPK2 AlphaLISA assay (displacement of bead-bound CZC-8004 from hRIPK2); assay type: binding; conditions: recombinant hRIPK2 kinase domain 10 nM, 2 h at 23° C.
T1 construct: kinase domain aa 1-299-His-tagged; purchased Life Technologies PR7829A
Outline: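 His-tagged kinase domain (10 nM, as diluted) was mixed with compound (0.8% DMSO), acceptor beads bearing the probe CZC-8004 and Ni2+ donor beads. After 2 h at 23 °C, AlphaLISA signal was read. Loss of signal reflects displacement of the probe from RIPK2.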

[2] = Human protein binding free fraction (Assay A, RED plate equilibrium dialysis); assay type: in vitro ADME; conditions: plasma, read-out: Assay A: Human protein binding free fraction (F %)
Protocol: Human protein binding protocol: Compound was added to plasma or brain homogenate and incubated at 2 μM at 37° C. in the RED plate (Thermo n° 96009, cut-off 8000 Da) against PBS buffer. After 4 h, aliquots of plasma and buffer side were transferred to a well containing acetonitrile with an internal standard. After protein precipitation, samples were centrifuged and supernatant was injected in LC/MS/MS. Standards were prepared in the same matrix and treated as samples.
A fraction unbound (fuplasma) was determined for each plasma sample as follows: […]

[3] = Human Clint, microsomal metabolic stability (Assay B); assay type: in vitro ADME; conditions: pooled liver microsomes 0.5 mg/mL, 0.5 μM compound, NADPH
Protocol: Human Clint protocol: Pooled liver microsomes (Sekisui Xenotech) were diluted at 0.5 mg/mL in 50 mM phosphate buffer, pH 7.4 then pre-incubated with 0.5 μM […] for 7 min at 37° C. The reactions were initiated by adding prewarmed cofactor (0.44 mM NADPH). Aliquots of samples were taken at 0, 5, 10, 20 and 45 min and the reactions stopped by addition of cold acetonitrile containing an internal standard. Samples were centrifuged at 3000 g for 10 min at 4° C. and then supernatants were analyzed by LC/MS/MS for the amount of parent compound remaining.

hERG potassium channel = biological target: T2, hERG potassium channel (Homo sapiens, UniProt Q12809); test: hERG q-patch assay (Assay C, Sophion Qube automated electrophysiology); assay type: cell-based; conditions: read-out: Assay C: hERG q-patch inhibition IC50
T2 construct: host or cells: HEK (hERG-HEK stably transfected cell line)
T2 sequence (Q12809 whole entry): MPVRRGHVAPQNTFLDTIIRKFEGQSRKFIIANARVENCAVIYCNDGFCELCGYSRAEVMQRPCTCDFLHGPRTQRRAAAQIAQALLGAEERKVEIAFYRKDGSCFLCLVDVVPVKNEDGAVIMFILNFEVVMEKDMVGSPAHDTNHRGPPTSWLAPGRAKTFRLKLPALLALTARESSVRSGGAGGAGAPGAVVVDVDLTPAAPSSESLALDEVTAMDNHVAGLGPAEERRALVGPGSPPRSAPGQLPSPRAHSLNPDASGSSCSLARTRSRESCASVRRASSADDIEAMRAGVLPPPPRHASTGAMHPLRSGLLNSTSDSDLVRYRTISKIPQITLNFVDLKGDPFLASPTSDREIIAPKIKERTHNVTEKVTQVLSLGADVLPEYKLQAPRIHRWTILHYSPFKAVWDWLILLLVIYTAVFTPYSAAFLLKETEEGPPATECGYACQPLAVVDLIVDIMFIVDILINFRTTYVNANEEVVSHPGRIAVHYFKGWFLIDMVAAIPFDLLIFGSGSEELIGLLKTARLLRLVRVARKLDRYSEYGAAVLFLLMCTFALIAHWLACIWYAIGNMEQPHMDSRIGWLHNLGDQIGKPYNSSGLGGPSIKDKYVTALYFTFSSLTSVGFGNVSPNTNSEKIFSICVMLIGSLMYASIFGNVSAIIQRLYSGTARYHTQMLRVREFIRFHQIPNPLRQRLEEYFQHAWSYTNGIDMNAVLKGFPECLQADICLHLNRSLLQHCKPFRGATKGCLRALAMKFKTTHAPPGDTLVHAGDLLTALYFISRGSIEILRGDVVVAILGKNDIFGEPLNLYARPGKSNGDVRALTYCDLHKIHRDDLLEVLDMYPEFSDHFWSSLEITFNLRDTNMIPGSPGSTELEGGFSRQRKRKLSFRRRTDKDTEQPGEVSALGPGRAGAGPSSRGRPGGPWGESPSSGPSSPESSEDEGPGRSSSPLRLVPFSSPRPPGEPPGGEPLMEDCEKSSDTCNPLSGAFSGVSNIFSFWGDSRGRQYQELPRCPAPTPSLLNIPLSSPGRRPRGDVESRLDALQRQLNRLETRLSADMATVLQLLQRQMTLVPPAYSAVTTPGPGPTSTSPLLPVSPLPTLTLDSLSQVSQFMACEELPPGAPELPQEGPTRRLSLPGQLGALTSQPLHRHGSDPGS
Protocol: hERG q-patch assay protocol: The potential for test compound to inhibit the hERG potassium channel was determined using the Charles River ChanTest® hERG-HEK stably transfected cell line on the Sophion Qube automated electrophysiology platform. The assay was performed at room temperature and recordings of the hERG tail current from a population of cells were made using multi-hole QChips.

T1 sequence (O43353 1-299): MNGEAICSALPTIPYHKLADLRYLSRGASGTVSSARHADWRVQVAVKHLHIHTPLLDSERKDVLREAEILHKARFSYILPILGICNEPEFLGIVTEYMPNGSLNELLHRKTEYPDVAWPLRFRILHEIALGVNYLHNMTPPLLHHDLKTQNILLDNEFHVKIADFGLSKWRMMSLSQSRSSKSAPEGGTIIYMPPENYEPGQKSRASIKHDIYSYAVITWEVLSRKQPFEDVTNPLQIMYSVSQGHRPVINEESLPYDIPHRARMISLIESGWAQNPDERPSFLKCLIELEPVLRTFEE

Compound | IC50 [1] [µM] | fraction unbound at 4 h, 2 μM [2] | Assay B: Human Clint (hCl) [3] | IC50 (hERG potassium channel) [µM]
O=C1[C@H](OC2CC2)C[C@H]2COc3ccn4ncc(c4n3)-c3cc(cc(-n4cccn4)c3)NCCN12 [Example 81, (12R,14S)-12-cyclopropoxy-4-(1H-pyrazol-1-yl)-16-oxa-7,10,20,21,24-pentaazapentacyclo[15.5.2. 1^2,6.0^10,^14.0^20,^23]pentacosa-1(23),2(25),3,5,17(24),18,21-heptaen-11-one] | < 0.01 | – | – | –
C#Cc1cc2cc(c1)-c1cnn3ccc(nc13)OC[C@@H]1C[C@@H](OCCOC)C(=O)N1CCN2 (racemic) [Example 118, (12R,14S)-4-ethynyl-12-(2-methoxyethoxy)-16-oxa-7,10,20,21,24-pentaazapentacyclo[15.5.2.1^2,6.0^10,^14.0^20,^23]pentacosa-1(23),2(25),3,5,17(24),18,21-heptaen-11-one] | < 0.01 | – | – | –
CO[C@@H]1C[C@H]2COc3nc4c(cnn4cc3C)-c3cc(cc(-n4cccn4)c3)NCCN2C1=O [Example 42, (12R,14S)-12-methoxy-18-methyl-4-(1H-pyrazol-1-yl)-16-oxa-7,10,20,21,24-pentaazapentacyclo[15.5.2.1^2,6.0^10,^14.0^20,^23]pentacosa-1(23),2(25),3,5,17(24),18,21-heptaen-11-one] | < 0.01 | – | – | –
CCOc1cc2cc(c1)-c1cnn3ccc(nc13)OC[C@@H]1C[C@@H](OCCOC)C(=O)N1CCN2 (racemic) [Example 112, (12R,14S)-4-ethoxy-12-(2-methoxyethoxy)-16-oxa-7,10,20,21,24-pentaazapentacyclo[15.5.2.1^2,6.0^10,^14.0^20,^23]pentacosa-1(23),2(25),3,5,17(24),18,21-heptaen-11-one] | < 0.01 | – | – | –
COc1cc2cc(c1)-c1cnn3cc(OC)c(nc13)OC[C@@H]1C[C@@H](O)C(=O)N1CCN2 [Example 143, (12R,14S)-12-hydroxy-4,18-dimethoxy-16-oxa-7,10,20,21,24-pentaazapentacyclo[15.5.2. 1^2,6.0^10,^14.0^20,^23]pentacosa-1(23),2(25),3,5,17(24),18,21-heptaen-11-one] | < 0.01 | – | – | –
CO[C@@H]1CC2(C)COc3ccn4ncc(c4n3)-c3cc(F)cc(c3)NCCN2C1=O (stereo partly drawn) [Example 40] | < 0.01 | – | – | –
O=C1[C@H](OCC2CC2)C[C@H]2COc3ccn4ncc(c4n3)-c3cc(F)cc(c3)NCCN12 [Example 11, (12R,14S)-12-(cyclopropylmethoxy)-4-fluoro-16-oxa-7,10,20,21,24-pentaazapentacyclo[15.5.2.1^2,6.0^10,^14.0^20,^23]pentacosa-1(23),2(25),3,5,17(24),18,21-heptaen-11-one] | < 0.01 | – | – | –
CCOc1cc2cc(c1)-c1cnn3ccc(nc13)OC[C@@H]1C[C@@H](OCC)C(=O)N1CCN2 [Example 28, (12R,14S)-4,12-diethoxy-16-oxa-7,10,20,21,24-pentaazapentacyclo[15.5.2.1^2,6.0^10,^14.0^20,^23]pentacosa-1(23),2(25),3,5,17(24),18,21-heptaen-11-one] | < 0.01 | – | – | –
CO[C@@H]1C[C@H]2COc3ccn4ncc(c4n3)-c3cc(C#N)cc(c3)NCCN2C1=O [Example 12, (12R,14S)-12-methoxy-11-oxo-16-oxa-7,10,20,21,24-pentaazapentacyclo[15.5.2.1^2,6.0^10,^14.0^20,23]pentacosa-1(23),2,4,6(25),17(24),18,21-heptaene-4-carbonitrile] | < 0.01 | – | – | –
[2H]C([2H])([2H])Oc1cc2cc(c1)-c1cnn3ccc(nc13)OC[C@@H]1C[C@@H](OC)C(=O)N1CCN2 [Example 52, (12R,14S)-4-(^2H3)methoxy-12-methoxy-16-oxa-7,10,20,21,24-pentaazapentacyclo[15.5.2.1^2,6.0^10,^14.0^20,^23]pentacosa-1(23),2,4,6(25),17(24),18,21-heptaen-11-one] | < 0.01 | – | – | –
CCO[C@@H]1C[C@H]2COc3ccn4ncc(c4n3)-c3cc(Cl)cc(c3)NCCN2C1=O [Example 20, (12R,14S)-4-chloro-12-ethoxy-16-oxa-7,10,20,21,24-pentaazapentacyclo[15.5.2.1^2,6.0^10,^14.0^20,^23]pentacosa-1(23),2,4,6(25),17(24),18,21-heptaen-11-one] | < 0.01 | – | – | –
CO[C@@H]1C[C@H]2COc3ccn4ncc(c4n3)-c3cc(cc(OCc4ccccc4)c3)NCCN2C1=O [Example 14, (12R, 14S)-4-(benzyloxy)-12-methoxy-16-oxa-7,10,20,21,24-pentaazapentacyclo[15.5.2.1^2,6.0^10,14.0^20,^23]pentacosa-1(23),2,4,6(25),17(24),18,21-heptaen-11-one] | 0.01 to 0.1 | – | – | –
COc1cc2cc(c1)-c1cnn3ccc(nc13)OC[C@@H]1C[C@@H](OC)C(=O)N1CCN2 [Example 5, (12R,14S)-4,12-d i methoxy-16-oxa-7,10,20,21,24-pentaazapentacyclo[15.5.2.1^2,6.0^10,^14.0^20,^23]pentacosa-1(23),2(25),3,5,17(24),18,21-heptaen-11-one] | < 0.01 | – | – | –

Second part, led by results:

IC50 [1] [µM] | fraction unbound at 4 h, 2 μM [2] | Compound | Assay B: Human Clint (hCl) [3] | IC50 (hERG potassium channel) [µM]
< 0.01 | > 0.01 | O=C1[C@H](OCCO)C[C@H]2COc3ccn4ncc(c4n3)-c3cc(F)cc(c3)NCCN12 [Example 79, (12R,14S)-4-fluoro-12-(2-hydroxyethoxy)-16-oxa-7,10,20,21,24-pentaazapentacyclo[15.5.2.1^2,6.0^1°,^14.0^2°,^23]pentacosa-1(23),2(25),3,5,17(24),18,21-heptaen-11-one] | +++ (+++ indicates hCl equal or below 5 ug/min/mg prot) | 1 to 10
< 0.01 | – | CO[C@@H]1C[C@H]2COc3ccn4ncc(c4n3)-c3cc(cc(C(=O)N(C)OC)c3)NCCN2C1=O [Example 55, (12R,14S)—N,12-dimethoxy-N-methyl-11-oxo-16-oxa-7,10,20,21,24-pentaazapentacyclo[15.5.2.1^2,6.0^1°,^14.0^2°,^23]pentacosa-1(23),2,4,6(25),17(24),18,21-heptaene-4-carboxamide] | +++ (+++ indicates hCl equal or below 5 ug/min/mg prot) | > 10
< 0.01 | – | CO[C@@H]1C[C@H]2COc3nc4c(cnn4cc3-c3cnn(C)c3)-c3cc(F)cc(c3)NCCN2C1=O [Example 67, (12R,14S)-4-fluoro-12-methoxy-18-(1-methyl-1H-pyrazol-4-yl)-16-oxa-7,10,20,21,24-pentaazapentacyclo[15.5.2.1^2,6.0^1°,^14.0^2°,^23]pentacosa-1(23),2(25),3,5,17(24), 18,21-heptaen-11-one] | +++ (+++ indicates hCl equal or below 5 ug/min/mg prot) | > 10
< 0.01 | – | COc1cn2ncc3c2nc1OC[C@@H]1C[C@@H](OC)C(=O)N1CCNc1cc(F)cc-3c1 [Example 1, (12R,14S)-4-fluoro-12,18-dimethoxy-16-oxa-7,10,20,21,24-pentaazapentacyclo[15.5.2.1^2,6.0^1°,^14.0^2°,^23]pentacosa-1(23),2(25),3,5,17(24),18,21-heptaen-11-one] | +++ (+++ indicates hCl equal or below 5 ug/min/mg prot) | > 10
< 0.01 | > 0.01 | CO[C@@H]1C[C@H]2COc3ccn4ncc(c4n3)-c3cc(cc(C(C)=O)c3)NCCN2C1=O [Example 54, (12R,14S)-4-acetyl-12-methoxy-16-oxa-7,10,20,21,24-pentaazapentacyclo[15.5.2.1^2,6.0^1°,^14.0^2°,^23]pentacosa-1(23),2,4,6(25),17(24),18,21-heptaen-11-one] | ++ (++ indicates hCl between 6-18 ug/min/mg prot) | > 10
< 0.01 | – | COCCO[C@@H]1C[C@H]2COc3nc4c(cnn4cc3OCCN(C)C)-c3cc(cc(OC)c3)NCCN2C1=O [Example 126, (12R,14S)-18-[2-(dimethylamino)ethoxy]-4-methoxy-12-(2-methoxyethoxy)-16-oxa-7,10,20,21,24-pentaazapentacyclo[15.5.2. 1^2,6.0^10,^14.0^20,^23]pentacosa-1(23),2,4,6(25),17(24),18,21-heptaen-11-one] | – | –
< 0.01 | – | COCCO[C@@H]1C[C@H]2COc3nc4c(cnn4cc3OC3CC4(COC4)C3)-c3cc(cc(OC)c3)NCCN2C1=O [Example 136, (12R,14S)-4-methoxy-12-(2-methoxyethoxy)-18-{2-oxaspiro[3.3]heptan-6-yloxy}-16-oxa-7,10,20,21,24-pentaazapentacyclo[15.5.2. 1^2,6.0^10,^14.0^20,^23]pentacosa-1(23),2,4,6(25),17(24),18,21-heptaen-11-one] | – | –
< 0.01 | – | COCCO[C@@H]1C[C@H]2COc3nc4c(cnn4cc3OC(C)C)-c3cc(cc(OC)c3)NCCN2C1=O [Example 125, (12R,14S)-4-methoxy-12-(2-methoxyethoxy)-18-(propan-2-yloxy)-16-oxa-7,10,20,21,24-pentaazapentacyclo[15.5.2. 1^2,6.0^10,^14.0^20,^23]pentacosa-1(23),2,4,6(25),17(24),18,21-heptaen-11-one] | – | –
